Experimental data reported in patent US12583858B2 (Genentech, Inc., priority 2015, dated 2026).

The compounds below were run against T1, TDO2 (Homo sapiens, UniProt P48775) (assay: TDO2 cell assay (NFK GreenScreen, SW48 cells)). Settings: SW48 cells (high TDO expressing), 200 uM tryptophan, 24 hours; Table 3; read-out: TDO2 Cell Fluor EC50.
T1 construct: decreased levels of NFK in SW48 cells (high TDO expressing cells)
Format: cell-based

T1 sequence (P48775 whole entry): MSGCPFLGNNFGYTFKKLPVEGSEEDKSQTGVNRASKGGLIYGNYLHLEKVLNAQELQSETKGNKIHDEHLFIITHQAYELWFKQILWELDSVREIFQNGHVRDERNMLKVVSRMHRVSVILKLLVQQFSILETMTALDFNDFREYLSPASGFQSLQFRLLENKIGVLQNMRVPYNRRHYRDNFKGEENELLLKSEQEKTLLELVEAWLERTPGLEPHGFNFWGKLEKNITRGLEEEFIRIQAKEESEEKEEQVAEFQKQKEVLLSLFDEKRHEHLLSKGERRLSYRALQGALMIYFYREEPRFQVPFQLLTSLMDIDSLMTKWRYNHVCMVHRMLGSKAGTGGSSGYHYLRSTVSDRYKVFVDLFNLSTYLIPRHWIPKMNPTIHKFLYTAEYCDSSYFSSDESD

Row | SMILES | EC50 [µM]
1 | OC1CCCOCC1C1c2ccccc2-c2cncn21 (single isomer, unassigned) [Example 86g] | 0.84
2 | OC1CC2(COC2)C1C1c2ccccc2-c2cncn21 (single isomer, unassigned) [Example 87a] | 18
3 | OC1CC2(COC2)C1C1c2ccccc2-c2cncn21 (single isomer, unassigned) [Example 87c] | 6
4 | OC1CC2(COC2)C1C1c2ccccc2-c2cncn21 (single isomer, unassigned) [Example 87d] | > 25
5 | OC1CC2(COC2)C1C1c2ccccc2-c2cncn21 (single isomer, unassigned) [Example 87e] | 14
6 | OC1CC2(COC2)C1C1c2ccccc2-c2cncn21 (single isomer, unassigned) [Example 87f] | 17
7 | OC1CC2(COC2)C1C1c2ccccc2-c2cncn21 (single isomer, unassigned) [Example 87g] | 0.24
8 | OC1CC2(COC2)C1C1c2ccccc2-c2cncn21 (single isomer, unassigned) [Example 87h] | 11
9 | OC1c2nccn2CCC1C1c2ccccc2-c2cncn21 (single isomer, unassigned) [Example 88a] | > 25
10 | OC1c2nccn2CCC1C1c2ccccc2-c2cncn21 (single isomer, unassigned) [Example 88b] | > 25
11 | OC1c2nccn2CCC1C1c2ccccc2-c2cncn21 (single isomer, unassigned) [Example 88c] | > 25
12 | OC1c2nccn2CCC1C1c2ccccc2-c2cncn21 (single isomer, unassigned) [Example 88d] | 21
13 | OC1c2nccn2CCC1C1c2ccccc2-c2cncn21 (single isomer, unassigned) [Example 88e] | > 25
14 | OC1c2nccn2CCC1C1c2ccccc2-c2cncn21 (single isomer, unassigned) [Example 88f] | 5.8
15 | OC1c2nccn2CCC1C1c2ccccc2-c2cncn21 (single isomer, unassigned) [Example 88g] | 0.73
16 | OC1c2nccn2CCC1C1c2ccccc2-c2cncn21 (single isomer, unassigned) [Example 88h] | > 25
17 | CC(C)S(=O)(=O)N1CCC(C2c3ccccc3-c3cncn32)C(O)C1 (single isomer, unassigned) [Example 89a] | 14
18 | CC(C)S(=O)(=O)N1CCC(C2c3ccccc3-c3cncn32)C(O)C1 (single isomer, unassigned) [Example 89b] | > 25
19 | CC1(C)CCCC(C)(C2c3ccccc3-c3cncn32)C1O (single isomer, unassigned) [Example 90a] | > 25
20 | CC1(C)CCCC(C)(C2c3ccccc3-c3cncn32)C1O (single isomer, unassigned) [Example 90b] | > 25
21 | CC1(C)CCCC(C)(C2c3ccccc3-c3cncn32)C1O (single isomer, unassigned) [Example 90c] | 0.057
22 | CC1(C)CCCC(C)(C2c3ccccc3-c3cncn32)C1O (single isomer, unassigned) [Example 90d] | 9.4
23 | CC1(C)CCCC(C)(C2c3ccccc3-c3cncn32)C1O (single isomer, unassigned) [Example 90f] | 0.41

Row | SMILES | EC50 [µM]
24 | CS(=O)(=O)N1CCC(O)C(C2c3ccccc3-c3cncn32)CC1 (single isomer, unassigned) [Example 92a] | 1.2
25 | CS(=O)(=O)N1CCC(O)C(C2c3ccccc3-c3cncn32)CC1 (single isomer, unassigned) [Example 92b] | 8.6
26 | CS(=O)(=O)N1CCC(O)C(C2c3ccccc3-c3cncn32)CC1 (single isomer, unassigned) [Example 92c] | 18
27 | CS(=O)(=O)N1CCC(O)C(C2c3ccccc3-c3cncn32)CC1 (single isomer, unassigned) [Example 92d] | 0.24
28 | Cn1ncc2c1CCC(C1c3ccccc3-c3cncn31)C2O (single isomer, unassigned) [Example 93b] | 5.5
29 | Cn1ncc2c1CCC(C1c3ccccc3-c3cncn31)C2O (single isomer, unassigned) [Example 93c] | 1.4
30 | Cn1ncc2c1CCC(C1c3ccccc3-c3cncn31)C2O (single isomer, unassigned) [Example 93d] | 1.4
31 | Cn1ncc2c1CCC(C1c3ccccc3-c3cncn31)C2O (single isomer, unassigned) [Example 93e] | 4.3
32 | Cn1ncc2c1CCC(C1c3ccccc3-c3cncn31)C2O (single isomer, unassigned) [Example 93f] | 0.81
33 | Cn1ncc2c1CCC(C1c3ccccc3-c3cncn31)C2O (single isomer, unassigned) [Example 93g] | > 25
34 | OC1c2cncnc2CCC1C1c2ccccc2-c2cncn21 (single isomer, unassigned) [Example 94a] | 2.3
35 | OC1c2cncnc2CCC1C1c2ccccc2-c2cncn21 (single isomer, unassigned) [Example 94b] | 3.1
36 | OC1c2cncnc2CCC1C1c2ccccc2-c2cncn21 (single isomer, unassigned) [Example 94d] | 0.13
37 | OC1c2cncnc2CCC1C1c2ccccc2-c2cncn21 (single isomer, unassigned) [Example 94e] | 2
38 | OC1c2cncnc2CCC1C1c2ccccc2-c2cncn21 (single isomer, unassigned) [Example 94f] | 12
39 | OC1c2cncnc2CCC1C1c2ccccc2-c2cncn21 (single isomer, unassigned) [Example 94g] | 14
40 | OC1c2cncnc2CCC1C1c2ccccc2-c2cncn21 (single isomer, unassigned) [Example 94h] | > 25
41 | OC1c2cc(CF)nn2CCC1C1c2ccccc2-c2cncn21 (single isomer, unassigned) [Example 95a] | > 25
42 | OC1c2cc(CF)nn2CCC1C1c2ccccc2-c2cncn21 (single isomer, unassigned) [Example 95b] | 0.24
43 | OC1COCCC1C1c2cccc(F)c2-c2cncn21 (single isomer, unassigned) [Example 99a] | > 25
44 | OC1COCCC1C1c2cccc(F)c2-c2cncn21 (single isomer, unassigned) [Example 99b] | > 25
45 | OC1COCCC1C1c2cccc(F)c2-c2cncn21 (single isomer, unassigned) [Example 99c] | > 25
46 | OC1COCCC1C1c2cccc(F)c2-c2cncn21 (single isomer, unassigned) [Example 99d] | 0.73

Results, then the compound that gave them:

Row | EC50 [µM] | SMILES
47 | 2.8 | CS(=O)(=O)c1ccc2c(c1)OCC(C1c3ccccc3-c3cncn31)C2O (single isomer, unassigned) [Example 91a]
48 | > 25 | CS(=O)(=O)c1ccc2c(c1)OCC(C1c3ccccc3-c3cncn31)C2O (single isomer, unassigned) [Example 91b]
49 | > 25 | CS(=O)(=O)c1ccc2c(c1)OCC(C1c3ccccc3-c3cncn31)C2O (single isomer, unassigned) [Example 91c]
50 | 0.36 | CS(=O)(=O)c1ccc2c(c1)OCC(C1c3ccccc3-c3cncn31)C2O (single isomer, unassigned) [Example 91d]
51 | 6.1 | CS(=O)(=O)c1ccc2c(c1)OCC(C1c3ccccc3-c3cncn31)C2O (single isomer, unassigned) [Example 91e]
52 | 0.81 | CS(=O)(=O)c1ccc2c(c1)OCC(C1c3ccccc3-c3cncn31)C2O (single isomer, unassigned) [Example 91f]
53 | 2.3 | CS(=O)(=O)c1ccc2c(c1)OCC(C1c3ccccc3-c3cncn31)C2O (single isomer, unassigned) [Example 91g]
54 | > 25 | CS(=O)(=O)c1ccc2c(c1)OCC(C1c3ccccc3-c3cncn31)C2O (single isomer, unassigned) [Example 91h]
55 | 0.073 | CN(C)C(=O)c1ccc2c(c1)CCC(C1c3ccccc3-c3cncn31)C2O (single isomer, unassigned) [Example 98a]
56 | 8.7 | CN(C)C(=O)c1ccc2c(c1)CCC(C1c3ccccc3-c3cncn31)C2O (single isomer, unassigned) [Example 98b]
57 | 0.18 | CN(C)C(=O)c1ccc2c(c1)CCC(C1c3ccccc3-c3cncn31)C2O (single isomer, unassigned) [Example 98c]
58 | 9.5 | CN(C)C(=O)c1ccc2c(c1)CCC(C1c3ccccc3-c3cncn31)C2O (single isomer, unassigned) [Example 98d]
59 | 22 | CN(C)C(=O)c1ccc2c(c1)CCC(C1c3ccccc3-c3cncn31)C2O (single isomer, unassigned) [Example 98e]
60 | 2.5 | CN(C)C(=O)c1ccc2c(c1)CCC(C1c3ccccc3-c3cncn31)C2O (single isomer, unassigned) [Example 98f]
61 | 0.86 | CN(C)C(=O)c1ccc2c(c1)CCC(C1c3ccccc3-c3cncn31)C2O (single isomer, unassigned) [Example 98g]
62 | 9.8 | CN(C)C(=O)c1ccc2c(c1)CCC(C1c3ccccc3-c3cncn31)C2O (single isomer, unassigned) [Example 98h]
63 | 0.12 | NS(=O)(=O)c1ccc2c(c1)CCC(C1c3ccccc3-c3cncn31)C2O (single isomer, unassigned) [Example 100a]
64 | 1.3 | NS(=O)(=O)c1ccc2c(c1)CCC(C1c3ccccc3-c3cncn31)C2O (single isomer, unassigned) [Example 100b]
65 | 7.4 | NS(=O)(=O)c1ccc2c(c1)CCC(C1c3ccccc3-c3cncn31)C2O (single isomer, unassigned) [Example 100c]
66 | > 25 | NS(=O)(=O)c1ccc2c(c1)CCC(C1c3ccccc3-c3cncn31)C2O (single isomer, unassigned) [Example 100d]
67 | 1.3 | NS(=O)(=O)c1ccc2c(c1)CCC(C1c3ccccc3-c3cncn31)C2O (single isomer, unassigned) [Example 100e]
68 | 15 | NS(=O)(=O)c1ccc2c(c1)CCC(C1c3ccccc3-c3cncn31)C2O (single isomer, unassigned) [Example 100f]
69 | 4.8 | NS(=O)(=O)c1ccc2c(c1)CCC(C1c3ccccc3-c3cncn31)C2O (single isomer, unassigned) [Example 100h]
